Test results published in USRE47589E1, “Phosphoramidate compounds and methods of use” (NuCana plc, priority 2003, dated 2019).
Entries after “also recorded” stand apart in the source; their conditions may differ.

Tests used:
colon HT115 xenograft = experiment: Mouse xenograft of human cancer, colon tumour volume; assay type: in vivo; conditions: for reducing colon tumour volume relative to control: daily dosing, CPF31 at 5 and 10 μM (3 and 6 μg/ml), gemcitabine at highest non-toxic concentration
Procedure: (§3) Mice were dosed daily at a range of concentrations (0.01-10 μM) and tumour volume assessed versus control.

prostrate PC3 xenograft = experiment: Mouse xenograft of human cancer, prostate tumour volume; assay type: in vivo; conditions: daily dosing, CPF31 at 5 and 10 μM (3 and 6 μg/ml), gemcitabine at highest non-toxic concentration
Procedure: as §3

[1] = test system: human colon cancer cell line (HT115); experiment: MTT cytotoxicity assay, colon cancer cell line; assay type: cell-based; conditions: for EC50: Homo sapiens, HT115, read-out: EC50/μM Colon HT115, MTT assay, compounds added to cells over 1 to 3 days; for concentration found to be active in vitro, colon cell line: same colon cell line (HT115)
Procedure: (§1) The compounds include those whose preparations are described above and compounds made by preparative methods corresponding to the methods described above.
(§2) Compounds were diluted over a range of concentrations and added to cells over 1 to 3 days. The cytotoxity was determined using a MTT assay at the end of each experiment.

[2] = test system: human prostate cancer cell line (PC-3); experiment: MTT cytotoxicity assay, prostate cancer cell line; assay type: cell-based; conditions: Homo sapiens, read-out: EC50/μM Prostate PC-3
Procedure: as §1, §2

[3] = Toxicity in mouse xenograft model (body mass loss, incident-free survival)
Procedure: as §3
(§4) Kaplan-Meier statistics were computed regarding incident-free survival.

[4] = test system: human breast cancer cell line (MDA MB 231); experiment: MTT cytotoxicity assay, breast cancer cell line; assay type: cell-based; conditions: Homo sapiens, MDA-MB-231, read-out: EC50/μM Breast MDA MB231
Procedure: as §1, §2

HIV-1 = conditions: cited from earlier work; for EC50: d4T phosphoramidates, prior art, read-out: 50% effective doses vs HIV-1
[5] = in vivo, 13 day
Procedure: as §3, §4

| SMILES | EC50 [1] | EC50 [2] | EC50 [4] | EC50 (HIV-1) | other results |
| --- | --- | --- | --- | --- | --- |
| C[C@H](NP(=O)(OC[C@H]1O[C@@H](n2ccc(N)nc2=O)C(F)(F)C1O)Oc1ccccc1)C(=O)OCc1ccccc1 (stereo partly drawn) [Example 31, Gemcitabine-[phenyl-(benzoxy-L-alaninyl)]-phosphate] | 5.7 µM | 0.22 µM | 42.6 µM | – | activity in reducing colon tumour volume in vivo at 5 μM (FIG. 4) (colon HT115 xenograft; 5 μM, day 24, versus Gemzar): greater activity; reducing colon tumour volume relative to control (colon HT115 xenograft): significantly effective; reducing prostate tumour volume relative to control (prostrate PC3 xenograft): significantly effective; concentration found to be active in vitro, colon cell line [1]: 5 µM; animals showing serious toxicity (10% body mass loss), day 10 ([3]; 5 and 10 μM groups combined, day 10): 3 animals; animals showing serious toxicity (10% body mass loss), day 11, collectively ([3]; 5 and 10 μM groups combined, day 11): 1 animals; animals showing serious toxicity (10% body mass loss), day 13 ([3]; 5 and 10 μM groups combined, day 13): 1 animals; toxicity compared with gemcitabine (Gemzar, GMZ) ([3]; mouse xenograft, weight loss based, Kaplan-Meier / Cox analysis, listed as CPF31): significantly less toxic; also recorded: substantially lower toxicity; also recorded: far less toxic |
| COC(=O)C(C)NP(=O)(OCC1C=CC(n2cc(C)c(=O)[nH]c2=O)O1)Oc1ccccc1 (stereo not shown) [(9)] | – | – | – | 0.075 µM | – |
| Cc1cn(C2C=CC(COP(=O)(NC(C)C(=O)OCc3ccccc3)Oc3ccccc3)O2)c(=O)[nH]c1=O (stereo not shown) [(10)] | – | – | – | – | potency boost of (10) over (9) (HIV-1; equivalent phosphoramidates of d4T, McGuigan et al, AVCC, 1998): ~4 fold |
| COC(=O)C(C)NP(=O)(OCC1C=CC(n2cc(C)c(=O)[nH]c2=O)O1)Oc1ccc(C(F)(F)F)cc1 (stereo not shown) [(13)] | – | – | – | 0.01 µM | – |
| COC(=O)C(C)(C)NP(=O)(OCC1C=CC(n2cc(C)c(=O)[nH]c2=O)O1)Oc1ccccc1 (stereo not shown) [(12)] | – | – | – | 0.29 µM | – |
| C[C@H](NP(=O)(OC[C@H]1O[C@@H](n2ccc(N)nc2=O)C(F)(F)C1O)Oc1ccc(Cl)cc1)C(=O)OCc1ccccc1 (stereo partly drawn) [Example 40, Gemcitabine-[para-chlorophenyl-(benzoxy-L-alaninyl)]-phosphate] | 16.1 µM | 15.4 µM | 9.2 µM | – | – |
| Nc1ccn([C@@H]2O[C@H](CO)[C@@H](O)C2(F)F)c(=O)n1 [Example G, gemcitabine, reference compound] | 606 µM | 3.12 µM | 2.8 µM | – | reducing colon tumour volume relative to control (colon HT115 xenograft): not effective; reducing prostate tumour volume relative to control (prostrate PC3 xenograft): not effective; concentration found to be active in vitro, colon cell line [1]: 600 µM; toxic concentration in mouse xenograft (FIG. 1) [5]: above 1 μM |
| O=C(OCc1ccccc1)C1(NP(=O)(OC[C@H]2O[C@@H](n3cc(/C=C/Br)c(=O)[nH]c3=O)CC2O)Oc2ccccc2)CCCC1 (stereo partly drawn) [Example 18, (E)-5-(2-Bromovinyl)-2′-deoxyuridine-5′-[phenyl-(benzoxy-α, α-cycloleucinyl)]-phosphate] | 9.7 µM | 33 µM | 78 µM | – | – |
| COC(=O)C(C)(C)NP(=O)(OC[C@H]1O[C@@H](n2cc(/C=C/Br)c(=O)[nH]c2=O)CC1O)Oc1ccccc1 (stereo partly drawn) [Example 26, (E)-5-(2-bromovinyl)2′-deoxyuridine-5′-[phenyl-(methoxy-α,α-dimethylglycinyl)]-phosphate] | 77.9 µM | 1.5 µM | 41.1 µM | – | – |
| CC(C)C[C@H](NP(=O)(OC[C@H]1O[C@@H](n2cc(/C=C/Br)c(=O)[nH]c2=O)CC1O)Oc1ccc(Cl)cc1)C(=O)OCc1ccccc1 (stereo partly drawn) [Example 39, (E)-5-(2-Bromovinyl)-2′-deoxyuridine-5′-[para-chlorophenyl-(benzoxy-L-leucinyl)]-phosphate] | 288 µM | 193 µM | 4.3 µM | – | – |
